≈ marks a conversion by molar mass, not a printed value.
Legend:
U937 cells = experiment: Cellular assay in U937 cells to measure the activity of RIPK1-inhibitors on cell death (necroptosis); assay type: cell-based; conditions: Homo sapiens, U-937, 50 μM zVAD.fmk and 100 ng/ml recombinant human TNFα, overnight (18 to 24 hrs), MTS readout
Description: Absorbance of formazan was read at 490 nm. The inhibitory activity of the test compound was quantified in a concentration response curve (CRC) experiment.
Compounds were obtained as 10 mM stock solutions and were diluted 1 to 10 volumes with DMSO to yield a 1 mM solution. From this solution 2 μl were diluted with 998 μl growth medium.
U937 cells were cultured in RPMI1640 Glutamax and 10% heat inactivated FBS. […] 50 μl of compound dilutions, as described in Cellular assay in U937 cells, were added and the cell suspension incubated overnight (18 to 24 hrs) at 37° C., 5% CO2 in a humidified atmosphere (95% rH).
CellTiter 96 Aqueous reagent was mixed (100 μl PMS (phenazine methosulfate) solution/2 ml MTS (3-(4,5-[…])-5-(3-carboxymethoxyphenyl)-2-(4-sulfophenyl)-2H-tetrazolium, inner salt) solution) and 20 μl were added per well. After 4 hrs incubation at 37° C. (5% CO2 95% rH) optical density was measured at 490 nm on a microplate reader (Tecan Infinite M1000).
The % inhibition is expressed as percentage of the maximal inhibition value obtained in the absence of TNFα/zVAD.fmc.

physchem = conditions: 50 mM phosphate buffer, 25 °C, pH 7.4, aqueous buffer, thermodynamic from solid

solubility at 16 h (physchem) [µM]	SMILES	IC50 (U937 cells) [nM]
> 1180	O=C1OCCN1c1ccnc(N2CCC(C(=O)N3OCC[C@H]3c3cnccn3)CC2)n1 [Example 2, (S)-3-(2-(4-(3-(pyrazin-2-yl)isoxazolidine-2-carbonyl)piperidin-1-yl)pyrimidin-4-yl)oxazolidin-2-one]	50
> 1130	O=C1CCCN1c1nc(N2CCC(C(=O)N3OCC[C@H]3c3cnccn3)CC2)ncc1F [Example 6, 1-[5-fluoro-2-[4-[(3S)-3-pyrazin-2-ylisoxazolidine-2-carbonyl]-1-piperidyl]pyrimidin-4-yl]pyrrolidin-2-one]	8
328 (≈ 142 µg/mL)	Cc1ccc([C@@H]2CCON2C(=O)C2CCN(c3ncnc(-c4ccnn4C)n3)CC2)cn1 [Example 8]	3
173 (≈ 74.9 µg/mL)	Cc1cnn(-c2ccnc(N3CCC(C(=O)N4OCC[C@H]4c4ccc(C)nc4)CC3)n2)c1 [Example 9, [1-[4-(4-methylpyrazol-1-yl)pyrimidin-2-yl]-4-piperidyl]-[(3S)-3-(6-methyl-3-pyridyl)isoxazolidin-2-yl]methanone]	29
> 2780	O=C(C1CCN(c2nccc(-c3ncco3)n2)CC1)N1OCC[C@H]1c1cnccn1 [Example 11, [1-(4-oxazol-2-ylpyrimidin-2-yl)-4-piperidyl]-[(3S)-3-pyrazin-2-ylisoxazolidin-2-yl]methanone]	10
> 1180	O=C(C1CCN(c2ncc(F)c(-c3ncco3)n2)CC1)N1OCC[C@H]1c1cnccn1 [Example 12, [1-(5-fluoro-4-oxazol-2-yl-pyrimidin-2-yl)-4-piperidyl]-[(3S)-3-pyrazin-2-ylisoxazolidin-2-yl]methanone]	1
> 1180	O=C(C1CCN(c2ncnc(-c3nccs3)n2)CC1)N1OCC[C@H]1c1cnccn1 [Example 14, [(3S)-3-pyrazin-2-ylisoxazolidin-2-yl]-[1-(4-thiazol-2-yl-1,3,5-triazin-2-yl)-4-piperidyl]methanone]	9
169 (≈ 73.2 µg/mL)	Cc1cnn(-c2nccc(N3CCC(C(=O)N4OCC[C@H]4c4ccc(C)nc4)CC3)n2)c1 [Example 16, [1-[2-(4-methylpyrazol-1-yl)pyrimidin-4-yl]-4-piperidyl]-[(3S)-3-(6-methyl-3-pyridyl)isoxazolidin-2-yl]methanone]	53
7.1 (≈ 3.21 µg/mL)	Cc1ccc([C@@H]2CCON2C(=O)C2CCN(c3ncc(F)c(-c4ccnn4C)n3)CC2)cn1 [Example 19, [1-[5-fluoro-4-(2-methylpyrazol-3-yl)pyrimidin-2-yl]-4-piperidyl]-[(3S)-3-(6-methyl-3-pyridyl)isoxazolidin-2-yl]methanone]	
21.4 (≈ 9.66 µg/mL)	Cc1ncc([C@@H]2CCON2C(=O)C2CCN(c3nccc(-n4ccnc4C)n3)CC2)cc1F [Example 20, [(3S)-3-(5-fluoro-6-methyl-3-pyridyl)isoxazolidin-2-yl]-[1-[4-(2-methylimidazol-1-yl)pyrimidin-2-yl]-4-piperidyl]methanone]	1
> 1110	Cc1ncc([C@@H]2CCON2C(=O)C2CCN(c3cc(-n4ccnc4C)ncn3)CC2)cc1F [Example 21, [(3S)-3-(5-fluoro-6-methyl-3-pyridyl)isoxazolidin-2-yl]-[1-[6-(2-methylimidazol-1-yl)pyrimidin-4-yl]-4-piperidyl]methanone]	73
	Cc1ncc([C@@H]2CCON2C(=O)C2CCN(c3ncc(F)c(N4CCC5(CC5)C4=O)n3)CC2)cc1F [Example 68, 5-[5-fluoro-2-[4-[(3S)-3-(5-fluoro-6-methylpyridin-3-yl)-1,2-oxazolidine-2-carbonyl]piperidin-1-yl]pyrimidin-4-yl]-5-azaspiro[2.4]heptan-4-one]	10000
	Cc1ccc([C@@H]2CCON2C(=O)C2CCN(c3nccc(N4CCC5(CC5)C4=O)n3)CC2)cn1 [Example 70, 5-[2-[4-[(3S)-3-(6-methylpyridin-3-yl)-1,2-oxazolidine-2-carbonyl]piperidin-1-yl]pyrimidin-4-yl]-5-azaspiro[2.4]heptan-4-one]	107
	O=C(C1CCN(c2nccc(N3CCCC4(CC4)C3=O)n2)CC1)N1OCC[C@H]1c1cncc(F)c1 [Example 72, 5-[2-[4-[(3S)-3-(5-fluoropyridin-3-yl)-1,2-oxazolidine-2-carbonyl]piperidin-1-yl]pyrimidin-4-yl]-5-azaspiro[2.5]octan-4-one]	58
	Cc1ccc([C@@H]2CCON2C(=O)C2CCN(c3nccc(N4CCC(F)(F)C4=O)n3)CC2)cn1 [Example 73, 3,3-difluoro-1-[2-[4-[(3S)-3-(6-methylpyridin-3-yl)-1,2-oxazolidine-2-carbonyl]piperidin-1-yl]pyrimidin-4-yl]pyrrolidin-2-one]	551
	Cc1cncc([C@@H]2CCON2C(=O)C2CCN(c3nccc(N4CCC(F)(F)C4=O)n3)CC2)c1 [Example 74, 3,3-difluoro-1-[2-[4-[(3S)-3-(5-methylpyridin-3-yl)-1,2-oxazolidine-2-carbonyl]piperidin-1-yl]pyrimidin-4-yl]pyrrolidin-2-one]	175
	Cc1cncc([C@@H]2CCON2C(=O)C2CCN(c3nccc(N4CCCC(F)(F)C4=O)n3)CC2)c1 [Example 76, 3,3-difluoro-1-[2-[4-[(3S)-3-(5-methylpyridin-3-yl)-1,2-oxazolidine-2-carbonyl]piperidin-1-yl]pyrimidin-4-yl]piperidin-2-one]	485
	Cc1ccc([C@@H]2CCON2C(=O)[C@@H]2CCN(c3ccnc(N4CCCC4=O)n3)CC23CC3)cn1 [Example 85, 1-[4-[(8R)-8-[(3S)-3-(6-methylpyridin-3-yl)-1,2-oxazolidine-2-carbonyl]-5-azaspiro[2.5]octan-5-yl]pyrimidin-2-yl]pyrrolidin-2-one]	517
	O=C1CCCN1c1cc(N2CCC(C(=O)N3OCC[C@H]3c3cncc(F)c3)CC2)ncn1 [Example 86, 1-[6-[4-[(3S)-3-(5-fluoropyridin-3-yl)-1,2-oxazolidine-2-carbonyl]piperidin-1-yl]pyrimidin-4-yl]pyrrolidin-2-one]	780
	Cc1ccc([C@@H]2CCON2C(=O)C2CCN(c3ccnc(N4CCCC4=O)n3)CC2)cn1 [Example 87, 1-[4-[4-[(3S)-3-(6-methylpyridin-3-yl)-1,2-oxazolidine-2-carbonyl]piperidin-1-yl]pyrimidin-2-yl]pyrrolidin-2-one]	> 10000
	Cc1ncc([C@@H]2CCON2C(=O)C2CCN(c3nccc(N4C(=O)CCC4(C)C)n3)CC2)cc1F [Example 89, 1-[2-[4-[(3S)-3-(5-fluoro-6-methylpyridin-3-yl)-1,2-oxazolidine-2-carbonyl]piperidin-1-yl]pyrimidin-4-yl]-5,5-dimethylpyrrolidin-2-one]	320
	Cc1ccc([C@@H]2CCON2C(=O)C2CCN(c3ccnc(N4CCCC5(CC5)C4=O)n3)CC2)cn1 [Example 90, 5-[4-[4-[(3S)-3-(6-methylpyridin-3-yl)-1,2-oxazolidine-2-carbonyl]piperidin-1-yl]pyrimidin-2-yl]-5-azaspiro[2.5]octan-4-one]	4430
	Cc1nc([C@@H]2CCON2C(=O)C2CCN(c3nccc(N4CCCC4=O)n3)CC2)cs1 [Example 92, 1-[2-[4-[(3S)-3-(2-methyl-1,3-thiazol-4-yl)-1,2-oxazolidine-2-carbonyl]piperidin-1-yl]pyrimidin-4-yl]pyrrolidin-2-one]	18
	Cc1ncc([C@@H]2CCON2C(=O)C2CCN(c3nccc(C4COC4)n3)CC2)cc1F [Example 101, [(3S)-3-(5-fluoro-6-methylpyridin-3-yl)-1,2-oxazolidin-2-yl]-[1-[4-(oxetan-3-yl)pyrimidin-2-yl]piperidin-4-yl]methanone]	2600

SMILES	solubility at 16 h (physchem) [µM]	IC50 (U937 cells) [nM]
Cc1ccc([C@@H]2CCON2C(=O)C2CCN(c3cc(-n4ccnc4C)ncn3)CC23CC3)cn1 (mixture of isomers) [Example 33, [5-[6-(2-methylimidazol-1-yl)pyrimidin-4-yl]-5-azaspiro[2.5]octan-8-yl]-[(3S)-3-(6-methylpyridin-3-yl)-1,2-oxazolidin-2-yl]methanone]	> 1090	16.4
Cc1ccc([C@@H]2CCON2C(=O)C2CCN(c3cc(-c4ccnn4C)ncn3)CC23CC3)cn1 (mixture of isomers) [Example 34, [5-[6-(2-methylpyrazol-3-yl)pyrimidin-4-yl]-5-azaspiro[2.5]octan-8-yl]-[(3S)-3-(6-methylpyridin-3-yl)-1,2-oxazolidin-2-yl]methanone]	> 1090	52.9
Cc1ccc([C@@H]2CCON2C(=O)[C@@H]2CCN(c3cc(-n4ccnc4C)ncn3)CC23CC3)cn1 (single isomer, unassigned) [Example 78]	> 1090	32
Cc1ccc([C@@H]2CCON2C(=O)[C@H]2CCN(c3cc(-n4ccnc4C)ncn3)CC23CC3)cn1 (single isomer, unassigned) [Example 79]	> 1090	
Cc1ccc([C@@H]2CCON2C(=O)[C@H]2CCN(c3cc(-c4ccnn4C)ncn3)CC23CC3)cn1 [Example 80, [5-[6-(2-methylpyrazol-3-yl)pyrimidin-4-yl]-5-azaspiro[2.5]octan-8-yl]-[(3S)-3-(6-methylpyridin-3-yl)-1,2-oxazolidin-2-yl]methanone]	> 1090	

— patent US20260234136A1, “ISOXAZOLIDINES AS RIPK1 INHIBITORS AND USE THEREOF” (GENZYME CORPORATION, priority 2023, published 2026)
